The results in this text go back to patent publication US20220242851A1, “CRYSTAL FORM AND SALT OF QUINAZOLINE COMPOUND AND PREPARATION METHOD THEREOF” (SHENZHEN JINRUI FOUNDATION BIOTECH CO., LTD, priority 2019, published 2022).

The subject of series [1] is subcutaneous xenograft tumor of human gastric cancer NCI-N87 cells. Put plainly: In vivo pharmacodynamics, NCI-N87 subcutaneous xenograft (Assay Example 3). Further details: species or system mouse. The note with it: 0.8 mg/kg, compared with the vehicle control group. The procedure:
(§1) Purpose of the assay: in vivo efficacy of the assay compound disclosed herein on subcutaneous xenograft tumor of human gastric cancer NCI-N87 cells in a BALB/c nude mouse model was evaluated.
Animals of the assay: female BALB/c nude mice, 6-8 weeks old, weighted 18-22 grams; supplier: Shanghai Ling Chang Biotechnology Co., Ltd.
Human gastric cancer NCI-N87 cells were cultured in monolayer in vitro. The culture conditions were RPMI-1640 medium plus 10% fetal bovine serum, 100 U/mL penicillin, 100 U/mL streptomycin and 2 mM glutamine, 37° C., 5% CO2. The passaging was performed by the conventional digestion with trypsin-EDTA twice a week. When the cell saturation was 80%-90%, the cells were collected, counted and inoculated.
0.2 mL (10×10^6) of NCI-N87 cells (PBS+Matrigel, 1:1) were inoculated subcutaneously on the right back of each nude mouse. When the average tumor volume reached 158 mm^3, administration to each group was started.
The assay compounds were formulated into 0.04 mg/mL and 0.08 mg/mL clear solution in the solvents of 10% NMP (N-methylpyrrolidone)+10% ethylene glycol stearate+80% water.
The assay index was to investigate whether tumor growth is inhibited, delayed or cured. Tumor diameter was measured twice a week with a vernier caliper. The calculation formula of tumor volume was: V=0.5a×b^2, wherein a and b represent the long and short diameters of tumor, respectively.
The antitumor efficacy of the compounds was evaluated by TGI (%) or tumor proliferation rate T/C (%). TGI (%) reflects tumor growth inhibition rate. […]
Statistical analysis included mean and standard error of mean (SEM) of tumor volume at each time point in each group (See Table 13 for specific data). […] The comparison between groups was analyzed by T-test, and the comparison among three or more groups was analyzed by one-way ANOVA. […]

Another series addresses T1, CYP3A4 (Homo sapiens, UniProt P08684).
T1 construct: in the assay of CYP enzyme activity in human liver microsome; from tissue; host or cells: human liver microsome
Description: Inhibition of CYP enzyme activity in human liver microsome, CYP3A4. The series is classed as in vitro ADME. The source says: (§2) The results of the compound disclosed herein and the reference compound Poziotinib in the assay of CYP enzyme activity in human liver microsome were shown in the following table (Table 17).

Series [2] concerns subcutaneous xenograft tumor of human esophageal carcinoma OE21 cells. Description: In vivo pharmacodynamics, OE21 subcutaneous xenograft (Assay Example 5). Also on record: species or system mouse. The procedure: Purpose of the assay: in vivo efficacy of the assay compound on subcutaneous xenograft tumor of human esophageal carcinoma OE21 cells in a BALB/c nude mouse model was evaluated.
Animals of the assay: female BALB/c nude mice, 6-8 weeks old, weighted 17-23 grams; supplier: shanghai sippr bk laboratory animals Ltd.
Human esophageal carcinoma OE21 cells were cultured in monolayer in vitro. The culture conditions were RPMI-1640 medium plus 10% fetal bovine serum, 100 U/mL penicillin, 100 U/mL streptomycin and 2 mM glutamine, 37° C., 5% CO2. The passaging was performed by conventional digestion with trypsin-EDTA twice a week. When the cell saturation was 80%-90%, the cells were collected, counted and inoculated.
0.1 ml […] OE21 cells (PBS) were inoculated subcutaneously on the right back of each mouse. When the average tumor volume reached 112 mm^3, administration to each group was started.
The assay compound was formulated into a 0.15 mg/mL to 0.3 mg/mL clear or suspension solution in the solvents of 10% NMP+10% ethylene glycol stearate+80% water.
The assay index was to investigate whether tumor growth is inhibited, delayed or cured. Tumor diameter was measured twice a week with vernier caliper. The calculation formula of tumor volume was: V=0.5a×b^2, wherein a and b represent the long and short diameters of tumor, respectively.
The antitumor efficacy of the compounds was evaluated by TGI (%) or relative tumor proliferation rate T/C (%). TGI (%) reflects the tumor growth inhibition rate. TGI (%) was calculated as follows: TGI (%)=[(1−average tumor volume at the end of administration for a certain treatment group−average tumor volume at the beginning of administration for this treatment group))/(average tumor volume at the end of treatment for a vehicle control group−average tumor volume at the beginning of administration for this vehicle control group)]×100%.
Relative tumor proliferation rate T/C (%): the calculation formula was as follows: T/C (%)=average tumor volume at the end of administration for a certain treatment group/average tumor volume at the end of treatment for the vehicle control group×100%.
Statistical analysis included the mean and standard error of mean (SEM) of tumor volume at each time point in each group. One-way ANOVA was used for comparison among three or more groups. […] SPSS 17.0 was used for all data analysis. p<0.05 was considered a significant difference.

The target of the next series is T2, CYP1A2 (Homo sapiens, UniProt P05177).
T2 construct: in the assay of CYP enzyme activity in human liver microsome; from tissue; host or cells: human liver microsome
T2 sequence (P05177 1-516): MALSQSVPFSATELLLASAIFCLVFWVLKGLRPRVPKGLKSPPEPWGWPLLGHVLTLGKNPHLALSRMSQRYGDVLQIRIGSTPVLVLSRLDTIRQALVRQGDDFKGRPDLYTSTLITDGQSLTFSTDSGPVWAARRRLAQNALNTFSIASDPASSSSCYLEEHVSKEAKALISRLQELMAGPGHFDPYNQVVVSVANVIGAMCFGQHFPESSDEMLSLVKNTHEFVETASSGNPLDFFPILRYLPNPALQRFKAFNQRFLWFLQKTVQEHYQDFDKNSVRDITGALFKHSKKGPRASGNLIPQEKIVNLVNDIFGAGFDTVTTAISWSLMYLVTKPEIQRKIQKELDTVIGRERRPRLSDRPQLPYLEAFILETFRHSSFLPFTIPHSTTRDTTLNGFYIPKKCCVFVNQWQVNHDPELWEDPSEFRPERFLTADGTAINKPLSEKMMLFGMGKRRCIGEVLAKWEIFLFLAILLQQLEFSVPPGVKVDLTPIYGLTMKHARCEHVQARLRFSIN
Description: Inhibition of CYP enzyme activity in human liver microsome, CYP1A2. The following applies: human liver microsome. The series is classed as in vitro ADME.
Description: as §2
For orientation: Microsomes from liver hold many membrane-bound enzymes, among them those of drug oxidation.

Series [3] in a line: Solid stability assay (XRPD, HPLC). The series is classed as physicochemical. The method, then:
Sample concentration: 0.5 mg/mL
According to influencing factor and accelerated assay conditions, about 5 mg of the crystal form B of the compound of formula (I) was accurately weighed and placed in a dry and clean glass bottle to form a thin layer as a formal assay sample in duplicate. The sample was placed under an influencing factor assay condition (60° C., 92.5% RH) and accelerated conditions (40° C./75% RH and 60° C./75% RH). The sample was fully exposed, and covered with aluminum foil paper punched with small holes. In addition, a small amount of sample was placed in a 40 mL glass sample bottle under the same conditions to determine the crystal state. The sample placed under light irradiation condition (1.2×10^6 Lux•hr/near ultraviolet 200 w•hr/m^2) was fully exposed at room temperature.

Series [4] has as its system subcutaneous xenograft tumor of human gastric cancer NCI-N87 cells. Put plainly: In vivo pharmacodynamics, NCI-N87 subcutaneous xenograft (Assay Example 4). The following applies: 0.5 mg/kg, compared with the vehicle control group. Further details: species or system mouse. The procedure:
as §1
Animals of the assay: female BALB/c nude mice, 6-8 weeks old, weighted 18-22 grams; supplier: shanghai sippr bk laboratory animals Ltd.
Human gastric cancer NCI-N87 cells were cultured in monolayer in vitro. The culture conditions were RPMI-1640 medium plus 10% fetal bovine serum, 100 U/mL penicillin, 100 μg/mL streptomycin, 37° C., 5% CO2. The passaging was performed by conventional digestion with trypsin-EDTA twice a week. When the cell saturation was 80%-90%, the cells were collected, counted and inoculated.
0.2 mL (10×10^6) of NCI-N87 cells (PBS+Matrigel, 1:1) were inoculated subcutaneously on the right back of each mouse. […]
The assay index was to investigate whether tumor growth is inhibited, delayed or cured. Tumor diameter was measured twice a week with a vernier caliper. […]
The antitumor efficacy of the compounds was evaluated by TGI (%) or tumor proliferation rate T/C (%). […]
Statistical analysis included the mean and standard error of mean (SEM) of tumor volume at each time point in each group (See Table 14 for specific data). […] The comparison between groups was analyzed by T-test, and the comparison among three or more groups was analyzed by one-way ANOVA. […]

T1 sequence (P08684 whole entry): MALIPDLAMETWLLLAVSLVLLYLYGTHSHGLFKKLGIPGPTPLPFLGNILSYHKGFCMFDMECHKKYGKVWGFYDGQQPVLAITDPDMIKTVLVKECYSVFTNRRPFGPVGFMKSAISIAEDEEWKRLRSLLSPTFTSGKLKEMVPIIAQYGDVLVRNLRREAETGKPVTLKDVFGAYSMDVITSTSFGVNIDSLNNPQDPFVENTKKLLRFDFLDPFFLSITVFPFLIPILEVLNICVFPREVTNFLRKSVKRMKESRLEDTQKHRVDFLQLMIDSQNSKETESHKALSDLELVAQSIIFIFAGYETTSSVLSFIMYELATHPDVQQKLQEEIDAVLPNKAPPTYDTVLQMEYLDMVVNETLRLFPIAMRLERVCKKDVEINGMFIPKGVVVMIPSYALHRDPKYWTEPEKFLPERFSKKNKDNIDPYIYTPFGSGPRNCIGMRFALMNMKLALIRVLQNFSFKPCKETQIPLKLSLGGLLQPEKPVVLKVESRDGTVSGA

As for `C=CC(=O)N1CCC(Oc2cc3c(Nc4ccc(Cl)c(Cl)c4F)ncnc3cc2OC)CC1` [Poziotinib, reference compound], the “tumor inhibitory effect (in words)” value was “significant tumor inhibitory effect” in series [1] and “significant tumor inhibitory effect” in series [2] (2/1.5 mg/kg, compared with the vehicle control group). In addition, the “inhibitory activity on CYP3A4 (in words)” value against CYP3A4 was “no inhibitory activity”. Besides, the “body weight and clinical signs (in words)” value in series [2] (2/1.5 mg/kg) was “varying degrees of body weight loss and dandruff”. Further, the “Tumor volume (Day 21)” value in series [2] (2/1.5 mg/kg, Day 21, Mean + SEM) is listed as 57 ± 7 mm3. The “body weight loss of individual mice (administration discontinued)” value in series [2] (2/1.5 mg/kg, from the 6th and 7th day, 1 mouse, then 3 mice) is reported as “more than 15%”. Moreover, in series [2] (discussion, high-dose group), the “effect on the body weight of mice (in words)” value is listed as “the body weight loss of mice was significant”. For the same compound, the “dark yellow urine, suggestion of toxicity (in words)” value in series [2] (mouse, in vivo) is listed as “mice in the whole group had dark yellow urine”. Moreover, the “inhibitory activity on CYP1A2 (in words)” value at CYP1A2 is reported as “no inhibitory activity”.
For the compound `C=CC(=O)N1[C@@H]2CC[C@H]1C[C@H](Nc1cc3c(Nc4ccc(Cl)c(Cl)c4F)ncnc3cc1OC)C2.O=C(O)/C=C\C(=O)O`, the Total impurity content in series [3] (40° C., 75% relative humidity, open, 1 month) is 1.62%; in series [3] (40° C., 75% relative humidity, open, 2 months), 1.52%; in series [3] (40° C., 75% relative humidity, open, 3 months) it was 1.52%; in series [3] (40° C., 75% relative humidity, open, 10 days) it was 1.64%; in series [3] (60° C., 75% relative humidity, open, 1 month) it was 1.62%; in series [3] (60° C., 75% relative humidity, open, 10 days) it was 1.63%. The Total impurity content in series [3] (High humidity (25° C./92.5% relative humidity, open), 5 days) stood at 1.65%; in series [3] (High humidity (25° C./92.5% relative humidity, open), 10 days), 1.65%; in series [3] (High temperature (60° C., open), 5 days), 1.64%; in series [3] (High temperature (60° C., open), 10 days), 1.64%; in series [3] (Initial, 0 day), 1.64%; in series [3] (Light irradiation (1.2 × 10^6 Lux · hr/near ultraviolet 200 w · hr/m^2, open), 10 days), 1.66%. In series [3] (Protected from light, 10 days), this compound returned a Total impurity content of 1.64%. In series [3] (conclusion over all conditions), the “solid stability (in words)” value is “good stability”.
Consider `C=CC(=O)N1CCC(Nc2cc3c(Nc4ccc(F)c(Cl)c4)ncnc3cc2OC)CC1` [Control compound 2, reference compound], for which the “tumor inhibitory effect (in words)” value in series [4] is listed as “not significant”.
